Laboratory results: patent publication US12570615B2, “Quinazolinone derivatives” (Hoffmann-La Roche Inc., priority 2021, dated 2026)

Assays:
BRAF (V600E) = BRAF (V600E) (Homo sapiens, UniProt P15056, V600E); experiment: KD BRAF (V600E) (Table 1); assay type: binding
BRAF (wt) = BRAF (wt) (Homo sapiens, UniProt P15056); experiment: KD BRAF (wt) (Table 1); assay type: binding
[1] = tested on: P-ERK (ERK phospho-T202/Y204) in A375 cells expressing V600E mutated BRAF; experiment: HTRF assay for P-ERK determination in A375 cells (BRAF inhibition); assay type: cell-based; conditions: Homo sapiens, A-375, P-ERK level, drug incubation 1 hour, DMSO = 100%, 10 μM Dabrafenib = 0%
Excerpt: (§1) A375 is a cellular cancer model expressing V600E mutated BRAF and HCT116 a cellular cancer model expressing WT BRAF. First generation BRAF inhibitors such as e.g. dabrafenib induce a paradox effect on tumour cells in that they inhibit the growth of V600E mutated BRAF cells (such as e.g. A375), while they activate growth in WT BRAF cells (such as e.g. HCT 116). ERK 1,2 phosphorylation (terminal member of the phosphorylation cascade of the MAPK pathway) is hereafter reported as main readout for the activation status of the MAPK pathway. DMEM no-phenol red medium supplemented with L-glutamine was purchased from (Thermo Fisher Scientific). Fetal bovine serum (FBS) was purchased from VWR. Advanced ERK phospho-T202/Y204 kit—10,000 tests was purchased from Cisbio cat #64AERPEH. A375 (catalog #CRL-1619) and HCT116 (catalog #CCL-247) cells were originally obtained from American type Culture Collection (ATCC) and banked by the Roche repository. 384-Well microplates utilized were purchased from Greiner Bio-One, 384-well, (With Lid, HiBase, Low volume cat 784-080).
(§2) Prior to the assay, A375 and HCT116 cell lines are maintained in DMEM no-phenol red medium supplemented with 10% fetal bovine serum (FBS). Following compound treatment, P-ERK levels are determined by measuring FRET fluorescence signal induced by selective binding of 2 antibodies provided in the mentioned kit (Cisbio cat #64AERPEH) on ERK protein when phosphorylated at Thr202/Tyr204. Briefly, 8000 cells/well in 12 μl media/well are plated in the 384-well plate and left overnight in the incubator (at 37° C. with 5% CO2-humidified atmosphere), the following day the plate is treated in duplicate with test compounds, dabrafenib and PLX8394 (the latter two as controls) at the following final drug concentrations: 10 μM-3 μM 1 μM-0.3 μM-0.1 μM-0.03 μM-0, 01 μM-0.003 μM-0.001 μM, all wells are subjected to DMSO normalization and drug incubation occurs for 1 hour. Then, […] of a 4× lysis buffer supplied with the kit are added to the wells, the plate is then centrifuged for 30 second (3000 rpm) and incubated on a plate shaker for 1 h at rt.
(§3) At the end of the incubation 4 μL/well of advanced P-ERK antibody solution (prepared according to manufacturer's instruction) followed by 4 μL/well of criptate P-ERK antibody solution (prepared according to manufacturer's instruction) (Cisbio cat #64AERPEH) are added to test wells.
(§4) In order to allow proper data normalization control wells non drug treated reported in the following table are always included in each plate (according to manufacturer's instruction):
(§5) The plate is then centrifuged at 3000 rpm for 30 second, sealed to prevent evaporation and incubated overnight in the dark at room temperature.
(§6) The plate is then analyzed and fluorescence emission value collected through a Pherastast FSX (BMG Labtech) apparatus at […].
(§7) The obtained fluorescence values are processed according to the formula Ratio=[…]*10000 then the average of the ratio on the blank is subtracted to all values.
Data are normalized in the case of A375 cells (BRAF inhibition) considering the average of the ratio (blank subtracted) derived by DMSO only treated cells as 100% and by considering the average of the ratio (blank subtracted) derived by 10 μM Dabrafenib treated cells as 0%. Mean of the normalized points are fitted with sigmoidal curve and IC50 determined.

[2] = tested on: P-ERK (ERK phospho-T202/Y204) in HCT116 cells expressing WT BRAF; experiment: HTRF assay for P-ERK determination in HCT116 cells (BRAF activation); assay type: cell-based; conditions: Homo sapiens, HCT-116, drug incubation 1 hour, concentration giving 50% of the maximum activation achieved by Dabrafenib
Excerpt: as §1, §2, §3, §4, §5, §6, §7
Data are normalized in the case of HCT116 cells (BRAF activation) considering the average of the ratio (blank subtracted) derived by DMSO only treated cells as 0% and by considering the average of the ratio (blank subtracted) derived by Dabrafenib treated cells at the concentration which provides the highest signal as 100%. Individual points are fitted with either sigmoidal or bell shape curves. The EC50 is the concentration at which activation equal to 50% of the maximum activation achieved by Dabrafenib is obtained.

Chain of BRAF (wt) (P15056 whole entry): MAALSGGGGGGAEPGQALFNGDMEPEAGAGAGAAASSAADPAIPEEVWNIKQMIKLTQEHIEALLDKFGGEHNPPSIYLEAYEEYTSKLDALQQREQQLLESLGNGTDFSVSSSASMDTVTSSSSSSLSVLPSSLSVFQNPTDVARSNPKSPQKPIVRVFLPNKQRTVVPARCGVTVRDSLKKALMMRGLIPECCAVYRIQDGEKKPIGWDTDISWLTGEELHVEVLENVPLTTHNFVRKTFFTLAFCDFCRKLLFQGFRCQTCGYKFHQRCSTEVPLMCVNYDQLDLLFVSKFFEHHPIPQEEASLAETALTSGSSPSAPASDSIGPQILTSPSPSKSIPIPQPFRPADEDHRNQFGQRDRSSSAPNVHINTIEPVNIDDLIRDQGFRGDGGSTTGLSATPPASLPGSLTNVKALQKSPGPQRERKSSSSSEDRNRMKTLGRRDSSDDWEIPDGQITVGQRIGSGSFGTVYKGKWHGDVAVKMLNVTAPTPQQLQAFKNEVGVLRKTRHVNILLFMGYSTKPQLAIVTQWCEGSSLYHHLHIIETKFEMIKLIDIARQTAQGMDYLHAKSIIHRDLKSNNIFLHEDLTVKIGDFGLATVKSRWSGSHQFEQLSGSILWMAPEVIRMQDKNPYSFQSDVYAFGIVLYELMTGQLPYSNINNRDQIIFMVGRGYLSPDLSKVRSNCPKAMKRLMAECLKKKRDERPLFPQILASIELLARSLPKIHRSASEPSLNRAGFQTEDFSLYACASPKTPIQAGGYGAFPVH
Chain of BRAF (V600E) (P15056 whole entry V600E): as the sequence (P15056 whole entry) above, with V600E counted along it

| Kd (BRAF (V600E)) | Kd (BRAF (wt)) | IC50 [1] | EC50 [2] | Structure (SMILES) |
| --- | --- | --- | --- | --- |
| 21.4 nM | 18.9 nM | 30.3 nM | 2250 nM | CC(C)(C)OC(=O)N1CCC(CCn2cnc3ccc(Oc4c(F)ccc(NS(=O)(=O)N5CC[C@@H](F)C5)c4C#N)cc3c2=O)CC1 [Example 2, tert-butyl 4-[2-[6-[2-cyano-6-fluoro-3-[[(3R)-3-fluoropyrrolidin-1-yl]sulfonylamino]phenoxy]-4-oxo-quinazolin-3-yl]ethyl]piperidine-1-carboxylate] |
| 162 nM | 78.3 nM | 41 nM | 6400 nM | CCN(C)S(=O)(=O)Nc1ccc(F)c(Oc2ccc3ncn(CCC4CCN(C(=O)OC(C)(C)C)CC4)c(=O)c3c2)c1C#N [Example 3, tert-butyl 4-[2-[6-[2-cyano-3-[[ethyl(methyl)sulfamoyl]amino]-6-fluoro-phenoxy]-4-oxo-quinazolin-3-yl]ethyl]piperidine-1-carboxylate] |
| 2.75 nM | 1.09 nM | 73.5 nM | 7080 nM | CC(C)(C)OC(=O)NCCCn1cnc2ccc(Oc3c(F)ccc(NS(=O)(=O)N4CC[C@@H](F)C4)c3C#N)cc2c1=O [Example 4, tert-butyl N-[3-[6-[2-cyano-6-fluoro-3-[[(3R)-3-fluoropyrrolidin-1-yl]sulfonylamino]phenoxy]-4-oxo-quinazolin-3-yl]propyl]carbamate] |
| 2.82 nM | 1.35 nM | 18.1 nM | 1190 nM | CC(C)(C)OC(=O)NCCCn1cnc2ccc(Oc3c(F)ccc(NS(=O)(=O)N4CCCC4)c3C#N)cc2c1=O [Example 5, tert-butyl N-[3-[6-[2-cyano-6-fluoro-3-(pyrrolidin-1-ylsulfonylamino)phenoxy]-4-oxo-quinazolin-3-yl]propyl]carbamate] |
| 20.8 nM | 12.2 nM | 52 nM | 2100 nM | CC(C)(C)OC(=O)N1CCC(CCn2cnc3ccc(Oc4c(F)ccc(NS(=O)(=O)N5CCCC5)c4C#N)cc3c2=O)CC1 [Example 7, tert-butyl 4-[2-[6-[2-cyano-6-fluoro-3-(pyrrolidin-1-ylsulfonylamino)phenoxy]-4-oxo-quinazolin-3-yl]ethyl]piperidine-1-carboxylate] |
| 0.97 nM | 0.69 nM | 28.9 nM | 624 nM | CC(C)(C)OC(=O)NCCCn1cnc2ccc(Oc3c(F)ccc(NS(=O)(=O)N4CCC4)c3C#N)cc2c1=O [Example 9, tert-butyl N-[3-[6-[3-(azetidin-1-ylsulfonylamino)-2-cyano-6-fluoro-phenoxy]-4-oxo-quinazolin-3-yl]propyl]carbamate] |
| 4.82 nM | 3.51 nM | 36.7 nM | 1530 nM | CC(C)(C)OC(=O)N1CCN(CCn2cnc3ccc(Oc4c(F)ccc(NS(=O)(=O)N5CC[C@@H](F)C5)c4C#N)cc3c2=O)CC1 [Example 10, tert-butyl 4-[2-[6-[2-cyano-6-fluoro-3-[[(3R)-3-fluoropyrrolidin-1-yl]sulfonylamino]phenoxy]-4-oxo-quinazolin-3-yl]ethyl]piperazine-1-carboxylate] |
| 93.5 nM | 50.4 nM | 78.9 nM | 4040 nM | CCC(C)S(=O)(=O)Nc1ccc(F)c(Oc2ccc3ncn(CCC4CCN(C(=O)OC(C)(C)C)CC4)c(=O)c3c2)c1C#N (centres unmarked) [Example 15, tert-butyl 4-[2-[6-[2-cyano-6-fluoro-3-(sec-butylsulfonylamino)phenoxy]-4-oxo-quinazolin-3-yl]ethyl]piperidine-1-carboxylate] |
| 2.16 nM | 1.61 nM | 11 nM | 240 nM | CC(C)(C)OC(=O)N1CCN(CCn2cnc3ccc(Oc4c(F)ccc(NS(=O)(=O)N5CCCC5)c4C#N)cc3c2=O)CC1 [Example 16, tert-butyl 4-[2-[6-[2-cyano-6-fluoro-3-(pyrrolidin-1-ylsulfonylamino)phenoxy]-4-oxo-quinazolin-3-yl]ethyl]piperazine-1-carboxylate] |
| 24.6 nM | 12.3 nM | 57.1 nM | 1140 nM | CC(C)(C)OC(=O)N1CCC(CCn2cnc3ccc(Oc4c(F)ccc(NS(=O)(=O)C5CCCC5)c4C#N)cc3c2=O)CC1 [Example 17, tert-butyl 4-[2-[6-[2-cyano-3-(cyclopentylsulfonylamino)-6-fluoro-phenoxy]-4-oxo-quinazolin-3-yl]ethyl]piperidine-1-carboxylate] |

Continued, compound first:

| Structure (SMILES) | Kd (BRAF (V600E)) | Kd (BRAF (wt)) | IC50 [1] | EC50 [2] |
| --- | --- | --- | --- | --- |
| CCN(C)S(=O)(=O)Nc1ccc(F)c(Oc2ccc3ncn(CCCC(=O)OC(C)(C)C)c(=O)c3c2)c1C#N [Example 1, tert-butyl 4-[6-[2-cyano-3-[[ethyl(methyl)sulfamoyl]amino]-6-fluoro-phenoxy]-4-oxo-quinazolin-3-yl]butanoate] | 26.7 nM | 15.3 nM | 19.8 nM | 2360 nM |
| CCN(C)S(=O)(=O)Nc1ccc(F)c(Oc2ccc3ncn(CCCNC(=O)OC(C)(C)C)c(=O)c3c2)c1C#N [Example 6, tert-butyl N-[3-[6-[2-cyano-3-[[ethyl(methyl)sulfamoyl]amino]-6-fluoro-phenoxy]-4-oxo-quinazolin-3-yl]propyl]carbamate] | 19.4 nM | 6.36 nM | 41.6 nM | ≥ 10000 nM |
| CC(C)(C)OC(=O)NCCCn1cnc2ccc(Oc3c(F)ccc(NS(=O)(=O)C4CCCC4)c3C#N)cc2c1=O [Example 8, tert-butyl N-[3-[6-[2-cyano-3-(cyclopentylsulfonylamino)-6-fluoro-phenoxy]-4-oxo-quinazolin-3-yl]propyl]carbamate] | 7.83 nM | 4.86 nM | 33.9 nM | 2430 nM |
| N#Cc1c(NS(=O)(=O)C2CCCC2)ccc(F)c1Oc1ccc2ncn(CCCc3ccccc3)c(=O)c2c1 [Example 11, N-[2-cyano-4-fluoro-3-[4-oxo-3-(3-phenylpropyl)quinazolin-6-yl]oxy-phenyl]cyclopentanesulfonamide] | 50.5 nM | 24.4 nM | 52.5 nM | 908 nM |
| CC(C)(C)OC(=O)NCCCn1cnc2ccc(Oc3c(F)ccc(NS(=O)(=O)C4CCCCC4)c3C#N)cc2c1=O [Example 12, tert-butyl N-[3-[6-[2-cyano-3-(cyclohexylsulfonylamino)-6-fluoro-phenoxy]-4-oxo-quinazolin-3-yl]propyl]carbamate] | 59.2 nM | 27.6 nM | 55.9 nM | 4930 nM |
| CCC(C)S(=O)(=O)Nc1ccc(F)c(Oc2ccc3ncn(CCCNC(=O)OC(C)(C)C)c(=O)c3c2)c1C#N (centres unmarked) [Example 13, tert-butyl N-[3-[6-[2-cyano-6-fluoro-3-(sec-butylsulfonylamino)phenoxy]-4-oxo-quinazolin-3-yl]propyl]carbamate] | 19.3 nM | 12.1 nM | 36.3 nM | 2820 nM |
| CC(C)(C)OC(=O)N1CCC(CCn2cnc3ccc(Oc4c(F)ccc(NS(=O)(=O)C5CCCCC5)c4C#N)cc3c2=O)CC1 [Example 14, tert-butyl 4-[2-[6-[2-cyano-3-(cyclohexylsulfonylamino)-6-fluoro-phenoxy]-4-oxo-quinazolin-3-yl]ethyl]piperidine-1-carboxylate] | 114 nM | 54.3 nM | 254 nM | 4850 nM |
